Laboratory results from PubChem BioAssay (NCI).
Where “and” joins values, the source holds several entries; their conditions need not be identical. Equal values may be shown once.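 Assay format: 96-well plates, 48-hour exposure. Abbreviation: GI50, concentration required for 50% inhibition of growth. TGI: total growth inhibition.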

These molecules were tested on DMS 114 small cell lung (assay: growth of human tumour cells (NCI), 48 h).
COC(=O)C1=C(C)N(NC(=O)OC(C)(C)C)C(=O)C1=P(c1ccccc1)(c1ccccc1)c1ccccc1 was tested, and the TGI was > 100 µM.
C[C@@H]1CC(=O)C2CCCC1C2=O (stereo not given in full) was tested, and the TGI was > 100 µM.
In the case of c1ccc(CNn2nnc3ccccc32)cc1, the TGI is reported as > 100 µM.

The molecules below were run on SNB-78 CNS (assay: growth of human tumour cells (NCI), 48 h).
Cc1nc(N)sc1C(=O)/C=C\c1ccc2c(c1)OCO2 was tested, and the TGI was > 100 µM.
For CC1(C)SCc2nc3ncccc3n21, the TGI was > 100 µM.
Cn1c(=O)c(C(c2ccc([N+](=O)[O-])cc2)c2c(O)c3ccccc3n(C)c2=O)cc2ccccc21 (stereo not given) was tested, and the TGI was > 100 µM.
Cc1cn(C2CC(O)C(CO)O2)c(=O)n2nnnc12 (stereo not given) was tested, and the TGI was > 100 µM.
With Cc1ccc(C2=C(c3ccccc3)C(Br)(c3ccc(C)cc3)C(c3ccccc3)=C2c2ccc(C)cc2)cc1 the TGI was > 100 µM.
In the case of CC1CC[C@]2(C(=O)O)CCC3(C)C(=CC(=O)C4[C@@]5(C)CCC(=O)C(C)(C)C5CC[C@]43C)[C@@H]2[C@H]1C (stereo not given in full), the TGI is reported as > 100 µM.
With O=C(O)C1OC(n2cc(F)c(=O)[nH]c2=O)CC1O (stereo not given) the TGI was > 100 µM.
With Cc1cccc(NC(=O)C(=O)C(C(=O)c2ccc3ccccc3c2)C2OC(=O)c3ccccc32)c1C (stereo not given) the TGI was > 100 µM.
With CC(=O)/C(C)=N/NC(=O)c1ccccc1O the TGI was > 10 µM.
With CC(C)(C)c1ccc2c(c1)S(=O)(=O)Nc1ccccc1NS(=O)(=O)c1cc(C(C)(C)C)ccc1OCCOCCOCCO2 the TGI was > 100 µM.
For CC(=O)[O-].CCN(CC)c1ccc(C=NCCN=Cc2ccc(N(CC)CC)cc2[O-])c([O-])c1.[Mn+3], the GI50 was 45.1 µM and the TGI was > 100 µM.
With NC(N)=N/N=C(\c1nc2ccc([N+](=O)[O-])cc2[nH]c1=O)C(O)c1ccc([N+](=O)[O-])cc1 (stereo not given) the TGI was > 100 µM.
CCC[CH2][Sn]1([CH2]CCC)[O]CC(CN2CCCC2)[O]1 (stereo not given) gave a GI50 of 11.4 µM and a TGI of 37.4 µM.
With CC1(C)C(=O)N(CCCCCCN2C(=O)C(C)(C)c3ccccc32)c2ccccc21 the TGI was > 100 µM.
COc1cc2c(c(OC)c1OC)-c1ccc(OC)c(=O)cc1[C@@H](NC(=O)c1ccccc1)CC2 was tested, and the TGI was 38.7 µM.
For NCCCCN(CCCN)/[N+]([O-])=N\O, the TGI was > 100 µM.
For CCOc1ccccc1NC(=O)CC(C(=O)OC)C(=O)C(=O)OC (stereo not given), the TGI was > 100 µM.
COc1cccc2c1C(=O)c1c(O)c3c(c(O)c1C2=O)C[C@@](O)(C(C)=O)C[C@@H]3OC1OC(C)C(O)C(N)C1Br (stereo not given in full) gave a TGI of 3.09 µM.
For COC(=O)C1=C(C)N(NC(=O)OC(C)(C)C)C(=O)C1=P(c1ccccc1)(c1ccccc1)c1ccccc1, the TGI was > 100 µM.
With Cc1cccc(NC(=O)/C(=N\NC(C)(C)C)C2NC(=S)NC2=O)c1C (stereo not given) the TGI was > 100 µM.
C[C@@H]1CC(=O)C2CCCC1C2=O (stereo not given in full) was tested, and the TGI was > 100 µM.
For c1ccc(CNn2nnc3ccccc32)cc1, the TGI was > 100 µM.

The molecules below were run on DMS 273 small cell lung (assay: growth of human tumour cells (NCI), 48 h).
In the case of Cc1nc(N)sc1C(=O)/C=C\c1ccc2c(c1)OCO2, the TGI is reported as > 100 µM.
For COc1cc(C(C)O)c[n+](CCc2c[nH]c3ccccc23)c1 (stereo not given), the TGI was > 100 µM.
For Cn1c(=O)c(C(c2ccc([N+](=O)[O-])cc2)c2c(O)c3ccccc3n(C)c2=O)cc2ccccc21 (stereo not given), the TGI was > 100 µM.
With Cc1cn(C2CC(O)C(CO)O2)c(=O)n2nnnc12 (stereo not given) the TGI was > 100 µM.
With COc1ccc(C(=O)C(C(=O)CCC(=O)Nc2cccc(Cl)c2)c2ccc(OC)cc2)cc1 (stereo not given) the TGI was > 100 µM.
In the case of Cc1ccc(C2=C(c3ccccc3)C(Br)(c3ccc(C)cc3)C(c3ccccc3)=C2c2ccc(C)cc2)cc1, the TGI is reported as > 100 µM.
For O=C(O)C1OC(n2cc(F)c(=O)[nH]c2=O)CC1O (stereo not given), the TGI was > 100 µM.
In the case of Cc1cccc(NC(=O)C(=O)C(C(=O)c2ccc3ccccc3c2)C2OC(=O)c3ccccc32)c1C (stereo not given), the TGI is reported as 39 µM.
In the case of CC(=O)/C(C)=N/NC(=O)c1ccccc1O, the TGI is reported as > 10 µM.
In the case of CC(C)(C)c1ccc2c(c1)S(=O)(=O)Nc1ccccc1NS(=O)(=O)c1cc(C(C)(C)C)ccc1OCCOCCOCCO2, the TGI is reported as > 100 µM.
CC(=O)[O-].CCN(CC)c1ccc(C=NCCN=Cc2ccc(N(CC)CC)cc2[O-])c([O-])c1.[Mn+3] showed a GI50 of 22.4 µM and a TGI of 45.8 µM.
For NC(N)=N/N=C(\c1nc2ccc([N+](=O)[O-])cc2[nH]c1=O)C(O)c1ccc([N+](=O)[O-])cc1 (stereo not given), the TGI was > 100 µM.
Work on CCC[CH2][Sn]1([CH2]CCC)[O]CC(CN2CCCC2)[O]1 (stereo not given) yielded a GI50 of 16.3 µM and a TGI of 30.8 µM.
In the case of CC1(C)C(=O)N(CCCCCCN2C(=O)C(C)(C)c3ccccc32)c2ccccc21, the TGI is reported as > 100 µM.
For NCCCCN(CCCN)/[N+]([O-])=N\O, the TGI was > 100 µM.
In the case of CCOc1ccccc1NC(=O)CC(C(=O)OC)C(=O)C(=O)OC (stereo not given), the TGI is reported as > 100 µM.
In the case of COc1cccc2c1C(=O)c1c(O)c3c(c(O)c1C2=O)C[C@@](O)(C(C)=O)C[C@@H]3OC1OC(C)C(O)C(N)C1Br (stereo not given in full), the TGI is reported as 0.268 µM and 0.151 µM.
In the case of COC(=O)C1=C(C)N(NC(=O)OC(C)(C)C)C(=O)C1=P(c1ccccc1)(c1ccccc1)c1ccccc1, the TGI is reported as > 100 µM.
For C[C@@H]1CC(=O)C2CCCC1C2=O (stereo not given in full), the TGI was > 100 µM.
In the case of c1ccc(CNn2nnc3ccccc32)cc1, the TGI is reported as > 100 µM.

These molecules were tested on RXF-631 renal (assay: growth of human tumour cells (NCI), 48 h).
For Cc1nc(N)sc1C(=O)/C=C\c1ccc2c(c1)OCO2, the TGI was > 100 µM.
For COc1cc(C(C)O)c[n+](CCc2c[nH]c3ccccc23)c1 (stereo not given), the TGI was > 100 µM.
With CC1(C)SCc2nc3ncccc3n21 the TGI was > 100 µM.
With Cn1c(=O)c(C(c2ccc([N+](=O)[O-])cc2)c2c(O)c3ccccc3n(C)c2=O)cc2ccccc21 (stereo not given) the TGI was > 100 µM.
For Cc1cn(C2CC(O)C(CO)O2)c(=O)n2nnnc12 (stereo not given), the TGI was > 100 µM.
In the case of COc1ccc(C(=O)C(C(=O)CCC(=O)Nc2cccc(Cl)c2)c2ccc(OC)cc2)cc1 (stereo not given), the TGI is reported as > 100 µM.
In the case of Cc1ccc(C2=C(c3ccccc3)C(Br)(c3ccc(C)cc3)C(c3ccccc3)=C2c2ccc(C)cc2)cc1, the TGI is reported as > 100 µM.
CC1CC[C@]2(C(=O)O)CCC3(C)C(=CC(=O)C4[C@@]5(C)CCC(=O)C(C)(C)C5CC[C@]43C)[C@@H]2[C@H]1C (stereo not given in full) was tested, and the TGI was > 100 µM.
Work on Cc1cccc(NC(=O)C(=O)C(C(=O)c2ccc3ccccc3c2)C2OC(=O)c3ccccc32)c1C (stereo not given) yielded a TGI of 29.8 µM.
CC(=O)/C(C)=N/NC(=O)c1ccccc1O was tested, and the TGI was > 10 µM.
With CC(C)(C)c1ccc2c(c1)S(=O)(=O)Nc1ccccc1NS(=O)(=O)c1cc(C(C)(C)C)ccc1OCCOCCOCCO2 the TGI was > 100 µM.
NC(N)=N/N=C(\c1nc2ccc([N+](=O)[O-])cc2[nH]c1=O)C(O)c1ccc([N+](=O)[O-])cc1 (stereo not given) was tested, and the TGI was > 100 µM.
For COc1cc2c(c(OC)c1OC)-c1ccc(OC)c(=O)cc1[C@@H](NC(=O)c1ccccc1)CC2, the TGI was > 48.3 µM.
In the case of CCOc1ccccc1NC(=O)CC(C(=O)OC)C(=O)C(=O)OC (stereo not given), the TGI is reported as > 100 µM.
Cc1cccc(NC(=O)/C(=N\NC(C)(C)C)C2NC(=S)NC2=O)c1C (stereo not given) was tested, and the TGI was > 100 µM.
For C[C@@H]1CC(=O)C2CCCC1C2=O (stereo not given in full), the TGI was > 100 µM.

The molecules below were run on BT-549 breast (assay: growth of human tumour cells (NCI), 48 h).
In the case of O=C(O)C1OC(n2cc(F)c(=O)[nH]c2=O)CC1O (stereo not given), the TGI is reported as > 100 µM.
CC(=O)/C(C)=N/NC(=O)c1ccccc1O was tested, and the TGI was > 100 µM.
COc1cc2c(c(OC)c1OC)-c1ccc(OC)c(=O)cc1[C@@H](NC(=O)c1ccccc1)CC2 was tested, and the GI50 was < 0.003 µM and the TGI was 30 µM.
COc1cccc2c1C(=O)c1c(O)c3c(c(O)c1C2=O)C[C@@](O)(C(C)=O)C[C@@H]3OC1OC(C)C(O)C(N)C1Br (stereo not given in full) showed a TGI of 0.913 µM.

Each molecule was assayed on MDA-N (assay: growth of human tumour cells (NCI), 48 h).
With O=C(O)C1OC(n2cc(F)c(=O)[nH]c2=O)CC1O (stereo not given) the TGI was > 100 µM.
For CC(=O)/C(C)=N/NC(=O)c1ccccc1O, the TGI was > 100 µM.
In the case of COc1cc2c(c(OC)c1OC)-c1ccc(OC)c(=O)cc1[C@@H](NC(=O)c1ccccc1)CC2, the GI50 is reported as < 0.003 µM and the TGI is reported as < 0.003 µM.
COc1cccc2c1C(=O)c1c(O)c3c(c(O)c1C2=O)C[C@@](O)(C(C)=O)C[C@@H]3OC1OC(C)C(O)C(N)C1Br (stereo not given in full) was tested, and the TGI was 0.63 µM.
